Where only a bound is given, the exact number is not on record here.

As for `OC(Cn1cncn1)(c1ccc(F)cc1)c1ccccc1Cl` (configuration not stated), the melting point (commonly the temperature of the solid-liquid transition) lay in the range of 115 to 116 °C.
Consider `COC(=O)C=C1C(=O)NC(=O)N1C`, for which the melting point came out at 100 °C.
The compound `Cc1ccc(S(=O)(=O)N(c2ccc(C#N)cc2Cl)C(C)C)cc1` registered a melting point of 118 to 119 °C.
Turning to `C=CCC(NC(C)=O)C(=O)NCc1ccccc1` (configuration not stated), the melting point is 118 to 120 °C.
Compound `CCN1CC=C(CC(=O)NC2(c3ccc(C(F)(F)F)cc3)C(=O)Nc3cc(Cl)cc(Cl)c32)CC1` (single isomer, unassigned; (+)) gave a melting point of 155 to 156 °C.
For `COc1cccc([C@H]2O[C@H](CC(=O)Nc3cccc(CCC(=O)O)c3)C(=O)N(CC(C)(C)C)c3ccc(Cl)cc32)c1OC` the value was 172 to 173 °C.
`CCCCc1nc2c(N)nc3cccnc3c2n1CCNC(=O)C1CCCCC1` registered a melting point of 188 to 190 °C.
The result for `CC(C)Cc1c(C(=O)OC(C)(C)C)c(C(F)F)nc(C(F)(F)F)c1C(=O)OC(C)(C)C` reads 48 to 50 °C.
`O=C(c1cc2c(cn1)[nH]c1ccccc12)n1ccnc1` registered a melting point greater than 280 °C.
For `FC(F)(F)c1cccc2c1[nH]c1c2ccc2cc[nH]c21`, the melting point was greater than 250 °C.
Take `O=C(Nc1ccc(Cl)c(C(F)(F)F)c1)N[C@H]1CC[C@H](Oc2ccc(C(F)(F)F)cn2)CC1`: the melting point was 176 to 178 °C.
`O=Cc1cccn2ccnc12` registered a melting point of 137 to 139 °C.
`Cn1nc2c(N)nc3ccccc3c2c1CC(C)(C)O` registered a melting point of 256 to 257 °C.
The result for `CC(C)(C)OC(=O)Nc1ccccc1NC(=O)c1ccc(C#N)nc1` reads 183 to 184 °C; that for `C#Cc1cn(C2CC(O)C(CO)O2)c(=O)nc1N` (configuration not stated), 162 to 165 °C; that for `O=C(NCCCN1CCN(c2cccc(Cl)c2)CC1)NC12CC3CC(CC(C3)C1)C2`, 174 to 175 °C.
The compound `COc1ccc(-c2nc(N3CCOCC3)c3c(C)c(C#N)sc3n2)cc1` had a melting point of 204 to 206 °C.
For `COC(=O)c1csc(C(=O)CBr)c1OC(=O)c1ccccc1` the value was 115 to 118 °C; for `c1ccc(-c2cnc3c(c2)ncn3-c2cccc(-c3cccnc3)c2)cc1`, 179 to 180 °C; for `C=CCNC(=O)N1CC(Sc2ccc(Cl)cc2)C1`, 88 to 89 °C.
In turn, `O=C(OCCN1CCOCC1)c1ccc(-c2n[nH]c3c2Cc2ccccc2-3)cc1` returned a melting point of 168 to 172 °C.
Compound `CC1(C)Cc2cccc(Oc3c(Cl)cc(NC(=S)NC(=O)c4c(F)cccc4F)cc3Cl)c2O1` returned a melting point of 153 to 154 °C.
`CC1(C)CON(Cc2ccc(N3C(=O)c4ccccc4C3=O)cc2Br)C1=O` returned a melting point of 158 to 159 °C.
Compound `CCNC(=O)N1CCN(C2CCCc3ccc(OC)cc32)CC1` (configuration not stated) gave a melting point of 141 to 143 °C.
Compound `COc1ccc(/C=C(/C(=O)OC(C)(C)C)C(=O)c2ccccc2O)cc1` had a melting point of 129 to 132 °C.
On to `Nc1ccc(C(=O)NNCCC(=O)OCc2ccccc2)cc1`, for which the melting point lay in the range of 96 to 97 °C.
`O=C1NC(=O)c2c1c(I)cc1[nH]c3ccc(O)cc3c21` displayed a melting point greater than 350 °C.
For the compound `C=CC[C@@H](C(=O)N[C@H](C(=O)N[C@H](C)c1ccccc1)C(C)(C)C)[C@@H]1OC(C)(C)OC1=O`, the melting point fell in the range of 178 to 180 °C.
Compound `CC(=O)Nc1ccc(C=CC(=O)N2CCc3c([nH]c4ccccc34)C2c2ccccc2)cc1` (configuration not stated) had a melting point of 177 to 180 °C.
For `Cc1ccc(S(=O)(=O)OCC2Cc3c(C)c(Cl)cc(C(C)C)c3O2)cc1` (configuration not stated) the value was 103 to 105 °C.
In the case of `CC1(C)CN(c2cccc(-c3cnc4[nH]cc(C(=O)C(C)(C)C)c4n3)c2)C1`, the melting point was in the range of 227 to 229 °C.
For `CN(CCc1ccc([N+](=O)[O-])cc1)C1CCN(c2ccc([N+](=O)[O-])cc2)CC1`, the melting point was 97 to 98 °C.
Compound `CC(C)(C)c1cc(C2SC(CC(=O)N3CCCC3)C(=O)N2CCCCl)cc(C(C)(C)C)c1O` (configuration not stated) yielded a melting point of 193 to 194 °C.
Consider `CC(=O)Nc1nc(=O)n(C(=O)c2ccc(C)cc2)cc1F`, for which the melting point lay within 147 to 148 °C.
The compound `O=C(NCc1ccc(Cl)cc1)c1cn(-c2ccccn2)c2oc(CCl)cc2c1=O` yielded a melting point of 224 to 227 °C.
Take `Cc1c(Br)c(=O)n(C2CCCCC2)c(=O)n1N=Cc1ccc(Cl)c(Cl)c1`: the melting point is 188 to 189 °C.
For the compound `CCOC(=O)c1cccc(-c2ccc(F)c3cc(CBr)sc23)c1`, the melting point is 139 to 140 °C.
`COc1ccc(-n2nnnc2C)cc1C=O` came in with a melting point of 132 to 134 °C.
`C[C@@H]1C[C@@H]([C@H](CC2CCCCC2)NC(=O)[C@H](Cc2cscn2)NC(=O)OC(C)(C)C)OC1=O` yielded a melting point of 118 to 120 °C.
The compound `CCCCc1ccccc1OCCCOc1cccc2c(=O)cc(C(=O)O)oc12` had a melting point of 168 °C.
`COc1cc(CCl)ccc1OCc1nc(-c2cccc(OS(C)(=O)=O)c2)oc1C` had a melting point of 112 to 114 °C.
For `C[C@@H]1Cc2ccsc2[C@H](C)N1CCNC(=O)c1ccc(NC(=O)C(F)(F)F)cc1` (relative stereo), the melting point was 174 to 177 °C.
As for `CC1(C)NC(SCc2ccccc2)=NC1=S`, the melting point lay within 133 to 134 °C.
`O=C1NC(=O)C(CC#Cc2ccc(Cl)cc2)(S(=O)(=O)c2ccc(F)cc2)S1` (configuration not stated): the melting point is 176 to 177 °C.
For `C=C(C1=C(CCC(=O)O)C(=O)CC1=O)c1ccccc1` the value was 116 to 117 °C.
Turning to `O=C(NCCc1nnn[nH]1)C(CS)C(F)(F)F` (configuration not stated), the melting point lay in the range of 182 to 184 °C.
Compound `CCOC(=O)c1cnc2c(c1O)CC(CC)CC2` (configuration not stated) had a melting point of 218 to 220 °C.
The result for `O=C(c1cccc(C(F)(F)F)c1)N(CCCCc1cccnc1)C1=Nc2cccc3cccc1c23` reads 122 to 123 °C.
`COc1cc2c(cc1OC)N(N)C(=O)C(C(=O)OC(C)(C)C)C2` (configuration not stated) yielded a melting point of 155 to 157 °C.
Turning to `O=C1C2CCC(N1c1cccs1)n1c(=O)n(-c3ccccc3)c(=O)n12` (configuration not stated), the melting point fell in the range of 238 to 244 °C.
The result for `N#Cc1ccc2c(c1)c1cc(C(=N)Nc3cccc(C(F)(F)F)c3)ccc1n2Cc1ccccc1` reads 210 to 220 °C; that for `CCCN=C(N)Nc1ccnc(CCCCC(N)=O)n1`, 212 to 214 °C.
As for `Fc1cccc(F)c1-c1ncc(Oc2cccc(Cl)c2)nn1`, the melting point lay in the range of 132 to 137 °C.
For `CN(C)c1snc(OCC#CI)c1C#N` the value was 171 to 172 °C; for `COCc1cccc(C(=O)c2nc(OC)cc(OC)n2)c1N`, 100 to 101 °C.
On to `CC(=O)c1ccc(OCCCBr)c(C)c1`, for which the melting point was in the range of 59 to 61 °C.
`Cc1cccc(NC(=O)NCC(=O)N(c2ccccc2)C(C(=O)OC(C)(C)C)c2ccc(Cl)cc2)c1` (racemic) showed a melting point of 167 °C.
Take `CCn1c(=O)n(N(Cc2ccccc2)Cc2ccccc2)c(=O)c2cc(F)c(F)cc21`: the melting point fell in the range of 133 to 135 °C.
`CCCCC1OC(=O)c2cc(NC(=O)CCC(=O)O)ccc21` (configuration not stated) returned a melting point of 163 to 165 °C.
In the case of `COc1c(C)c(C)c(OC)c([N+](=O)[O-])c1[N+](=O)[O-]`, the melting point was in the range of 147 to 150 °C.
As for `O=C(NC(=S)NC1CCN(Cc2ccc3ccccc3c2)CC1)c1ccccc1`, the melting point was 212 to 214 °C.
Compound `C=CCC1COC(CC)(CC(=O)OC)c2[nH]c3c(CC)cccc3c21` (configuration not stated) yielded a melting point of 92 to 93 °C.
`CC(=O)OCC1OC(OS(=O)(=S)c2ccccc2)C(OC(C)=O)C(OC(C)=O)C1OC(C)=O` (configuration not stated) registered a melting point of 53 to 54 °C.
With `COc1cc(-c2ncc(S(C)=O)cc2Cl)c(F)cc1Cl` (configuration not stated), the melting point lay within 117 to 118 °C.
In turn, `CC(=O)c1ccc(-c2ccc(CC(C)O)cc2)cc1` (single isomer, unassigned; (-)) returned a melting point of 139 to 140 °C.
Compound `COCCOCCOCCOc1cc(OC)c(-c2cccs2)cc1/C=C/C(=O)c1ccc(C(=O)O)cc1` registered a melting point of 137 to 138 °C.
Consider `CC(C)(C(N)=O)/C(F)=C(/F)c1ccc(Cl)cc1`, for which the melting point was 99 °C.
The result for `COc1cc(C=CC(=O)Nc2c(C)nc3c(C)cc(C)cc3c2-c2ccccc2Cl)cc(OC)c1OC(C)=O` reads 225 to 226 °C; that for `C=CC(=O)NCc1c(-c2ccccc2)noc1C`, 149 to 151 °C; that for `CN(C)c1ccc(-c2ccc(C(=O)Nc3cccc(CC(=O)O)c3)o2)cc1`, 187 to 190 °C.
For `CCOP(=S)(OCC)Oc1cc(C(=O)OC)sc1C(=O)OC` the value was 50 °C.
Compound `COc1nc(-c2cc(C)c(OCCCc3cc(C)no3)c(C)c2)no1` had a melting point of 64.5 to 65.5 °C.
For the compound `Cc1ccc(S(=O)(=O)Nc2cccc3cc(C(=O)O)[nH]c23)cc1`, the melting point lay in the range of 268 to 269 °C.
For `O=c1c(O)c(-c2ccc[nH]2)oc2ccccc12` the value was 201 to 203 °C.
On to `C=C(C)C(=O)OCCCOc1ccc(-c2cc(OC(=O)C(=C)C)cc(-c3ccc(OCCCOC(=O)C(=C)C)cc3)c2)cc1`, for which the melting point is 49 °C.
In the case of `Nc1cc(N2CC(COc3ccccc3)OC2=O)ccn1` (configuration not stated), the melting point is 191 to 192 °C.
As for `CC(C)c1nc(C(C)C)c(CCCC(=O)O)c(-c2ccc(F)cc2)c1CO`, the melting point turned out to be 160 °C.
The result for `Cn1ncnc1-c1oc2cccc(CCc3ccc(F)cc3)c2c(=O)c1O` reads 192 to 193 °C; that for `Cc1nc2sccn2c(=O)c1CCN1CCC(=C2c3ccccc3CCn3ccnc32)CC1`, 182 °C.
`CC(C)c1nc(COCc2ccccc2)n(CF)c1Sc1cc(Cl)cc(Cl)c1`: the melting point lay within 115 to 117 °C.
Turning to `O=C(O)c1cc(C(F)(F)F)ccc1I`, the melting point lay within 171 to 172 °C.
On to `COn1c(C(C)(C)C)nc2c(N)nc3ccccc3c21`, for which the melting point was in the range of 195 to 197 °C.
As to `C=Cc1ccc(CN2C(=O)c3ccccc3C2=O)c(Cl)c1`, the melting point lay in the range of 141 to 143 °C.
Consider `Cc1nc2sccn2c1-c1ccc(C#N)cc1`, for which the melting point fell in the range of 88 to 91 °C.
Compound `COC(=O)Oc1c(OC)c(OC)c(OC(=O)OC)c2ccccc12` yielded a melting point of 53 to 54 °C.
Consider `NC(=O)c1c(F)ccc(F)c1N`, for which the melting point was in the range of 121 to 123 °C.
Compound `CCOc1ccc(-c2ccc3c(c2)C=C(C(=O)Nc2ccc(CN(C)C4CCOCC4)cc2)CCS3(=O)=O)cc1OCC` displayed a melting point of 224 to 226 °C.
